Reference: patent publication US8835632B2, “Methods to increase the photostability of dyes” (The University of North Carolina at Chapel Hill, priority 2007, dated 2014)

Columns and labels:
[1] = from C6H6 to MeOH; cited from earlier work
[2] = Absorption and fluorescence spectra, extinction coefficient, fluorescence quantum yield; type: physicochemical; conditions: for Suppression of extinction coefficient by introduction of the cyano-group: in methanol
[3] = Methylene Blue-sensitized photobleaching (reactivity of the dyes with singlet oxygen); type: physicochemical; conditions: methanol, [dye]=[Methylene Blue]=3.33 μM, filtered light λ>630 nm, 40 min
Method: The reactivity of the dyes with singlet oxygen also was examined to confirm that the cyano substituent group affected photobleaching mediated by singlet oxygen. Singlet oxygen was generated using the photosensitizer Methylene Blue (MB), which has a high quantum yield for singlet oxygen production and allows singlet oxygen to be introduced into the system without excitation of the merocyanine dye. See Murov and Carmichael, Handbook of Photochemistry, 2nd ed.; Dekker: New York (1993).
15 mL of a methanol solution containing dye (3.33 μM) and Methylene Blue (3.33 μM) were placed in a 20-mL Borosilicate Glass Scintillation Vial (Fisher Scientific). The vial was illuminated with the light of a 90 W halogen reflector lamp (120 V, 1280 Lumens, 12 Degree Beam Spread). […] The length of the filtering solution was 1.0 cm. The distance between the vial and the lamp was 11.0 cm. A fan (120 V, 150 mm)) was used to cool the vial. At selected time intervals a sample was removed and the sample absorbance spectrum was obtained on a Hewlett-Packard 8453 diode array spectrophotometer (Agilent, Technologies, Inc.). Rate constants of dye photobleaching were obtained from a plot of ln(A) vs. time (see Table 5).
Again, without wishing to be bound to any one particular theory, the greater reactivity of S-SO vs. I-SO toward singlet oxygen can be attributed to the greater electron donating capacity of the benzothiazole moiety relative to the indolenine ring system.

[4] = Photobleaching under constant illumination from a halogen tungsten lamp filtered through glass; type: physicochemical
Source text: The photostability of dyes can be important for applications in living cells. The mechanism of photobleaching for merocyanines of varying structure has been examined See Toutchkine et al., J. Am. Chem. Soc. 125:4132-4145 (2003). The photostability of the presently disclosed dyes was characterized by exposing them to constant illumination from a halogen tungsten lamp filtered through glass. This broad spectrum light source provided essentially equal intensity throughout the spectral range where the dyes absorb and where they would be irradiated in vivo (about 600 nm to about 650 nm).

[5] = Relative rate of reaction with chemically generated singlet oxygen in DMSO; type: physicochemical; conditions: 2.5 mM, 1O2 from 1,4-dimethylnaphtalene-1,4-endoperoxide
Method: The bleaching rates for the dyes differed by two orders of magnitude. The relative rate constants kr (rel) for product formation during reaction with singlet oxygen were measured by comparing the percent conversions for dyes dissolved in DMSO containing a fixed amount of ^1O2 (2.5 mM solutions; ^1O2 generated by decomposition of 1,4-dimethylnaphtalene-1,4-endoperoxide). The rates were generally higher for dyes with a polar ground state (1a, 2a, 2b, 2d) than for the dyes with their ground state at the “cyanine limit” (3, 4). […] Olefins without allylic hydrogens react with singlet oxygen to form dioxetanes. Dioxetanes are unstable and decompose, to form two carbonyl compounds.

For `CCN1C(=O)\C(=C/C=C/C=C2\Sc3ccccc3N2CC)C(O)N(CC)C1=S` (stereo not shown) [S-TBA], which Absorption wavelength shift [1] is on record?
Its Absorption wavelength shift is 17 nm.

And the Emission wavelength shift [1]?
Its Emission wavelength shift is 11 nm.

Which “Absorbance λmax” value ([2]; Butanol (BuOH)) does the source give for `CCN1/C(=C(C#N)/C=C/C=C2/C(=O)c3ccccc3S2(=O)=O)Sc2ccccc21` [S-SO-CN, (2E,3E,5Z)-5-(1,1-dioxido-3-oxo-1-benzothien-2(3H)-ylidene)-2-(3-ethyl-1,3-benzothiazol-2(3H)-ylidene)pent-3-enenitrile] here?
The value was 550 nm.

What about the “Emission λmax” value ([2]; Butanol (BuOH)) of the same compound?
Its value is 599 nm.

What about the “Extinction coefficient ε” value ([2]; Butanol (BuOH)) of the same compound?
The value was 91000.

What about the “Fluorescence quantum yield Φ” value ([2]; Butanol (BuOH)) of the same compound?
The value was 0.16.

What about the “Absorbance λmax” value ([2]; Methanol (MeOH)) of the same compound?
The value was 547 nm.

What about the “Emission λmax” value ([2]; Methanol (MeOH)) of the same compound?
Its value is 597 nm.

What about the “Extinction coefficient ε” value ([2]; Methanol (MeOH)) of the same compound?
Its value is 95000.

And the “Fluorescence quantum yield Φ” value ([2]; Methanol (MeOH))?
Its value is 0.05.

What about the “Bleaching on irradiation of Methylene Blue” value [3] of the same compound?
Its value is “no bleaching”.

Which “Absorbance λmax” value ([2]; Butanol (BuOH)) does the source give for `CCN1/C(=C/C=C/C=C2/C(=O)c3ccccc3S2(=O)=O)Sc2ccccc21` [S-SO, (2Z)-2-[(2E,4Z)-4-(3-ethyl-1,3-benzothiazol-2(3H)-ylidene)but-2-en-1-ylidene]-1-benzothiophen-3(2H)-one 1,1-dioxide, reference compound] here?
The value was 604 nm.

And the “Emission λmax” value ([2]; Butanol (BuOH))?
Its value is 622 nm.

What about the “Extinction coefficient ε” value ([2]; Butanol (BuOH)) of the same compound?
The value was 163000.

What about the “Fluorescence quantum yield Φ” value ([2]; Butanol (BuOH)) of the same compound?
The value was 0.12.

What about the “Absorbance λmax” value ([2]; Methanol (MeOH)) of the same compound?
The value was 598 nm.

And the “Emission λmax” value ([2]; Methanol (MeOH))?
Its value is 617 nm.

What about the “Extinction coefficient ε” value ([2]; Methanol (MeOH)) of the same compound?
The value was 143000.

What about the “Fluorescence quantum yield Φ” value ([2]; Methanol (MeOH)) of the same compound?
Its value is 0.05.

What about the “Suppression of extinction coefficient by introduction of the cyano-group” value [2] of the same compound?
The value was 34%.

What about the “Bleaching on irradiation of Methylene Blue” value [3] of the same compound?
The value was 43%.

What does the source list for `CN1/C(=C/C=C/C=C2/C(=O)c3ccccc3S2(=O)=O)C(C)(C)c2ccccc21` [I-SO, (2Z)-2-[(2E,4E)-4-(1,3,3-trimethyl-1,3-dihydro-2H-indol-2-ylidene)but-2-en-1-ylidene]-1-benzothiophen-3(2H)-one 1,1-dioxide, reference compound]?
Absorbance λmax ([2]; Butanol (BuOH)): 587 nm; Emission λmax ([2]; Butanol (BuOH)): 618 nm; Extinction coefficient ε ([2]; Butanol (BuOH)): 134000; Fluorescence quantum yield Φ ([2]; Butanol (BuOH)): 0.2; Absorption energy Eabs Exp ([2]; C6H6): 2.172 eV; Emission energy Eem Exp ([2]; C6H6): 2.056 eV; Absorption energy Eabs Exp ([2]; MeOH): 2.116 eV; Emission energy Eem Exp ([2]; MeOH): 2.016 eV; Absorbance λmax ([2]; Methanol (MeOH)): 586 nm; Emission λmax ([2]; Methanol (MeOH)): 615 nm; Extinction coefficient ε ([2]; Methanol (MeOH)): 143000; Fluorescence quantum yield Φ ([2]; Methanol (MeOH)): 0.03; Observed absorption (ε) ([2]; Table 10, BuOH): (134000); Observed absorption λmax ([2]; Table 10, BuOH): 587 nm; Observed absorption (ε) ([2]; Table 10, C6H6): (109000); Observed absorption λmax ([2]; Table 10, C6H6): 571 nm; Observed absorption (ε) ([2]; Table 10, DMF): (143000); Observed absorption λmax ([2]; Table 10, DMF): 586 nm; Observed absorption (ε) ([2]; Table 10, MeOH): (143000); Observed absorption λmax ([2]; Table 10, MeOH): 586 nm; Observed absorption (ε) ([2]; Table 10, OcOH): (125000); Observed absorption λmax ([2]; Table 10, OcOH): 587 nm; Absorption Exp wavelength ([2]; Table 12, C6H6): 571 nm; Absorption Exp wavelength ([2]; Table 12, MeOH): 586 nm; Observed emission (Φ) ([2]; Table 15, BuOH): 0.54; Observed emission λmax ([2]; Table 15, BuOH): 618 nm; Observed emission (Φ) ([2]; Table 15, C6H6): 0.42; Observed emission λmax ([2]; Table 15, C6H6): 603 nm; Observed emission (Φ) ([2]; Table 15, DMF): 0.97; Observed emission λmax ([2]; Table 15, DMF): 615 nm; Observed emission (Φ) ([2]; Table 15, MeOH): 0.08; Observed emission λmax ([2]; Table 15, MeOH): 615 nm; Observed emission (Φ) ([2]; Table 15, OcOH): 0.98; Observed emission λmax ([2]; Table 15, OcOH): 617 nm; Suppression of extinction coefficient by introduction of the cyano-group [2]: 62%; Absorption wavelength shift [1]: 15 nm; Emission wavelength shift [1]: 12 nm; kph * 10^6 (absolute rate of photobleaching) ([4]; C6H6): 1.11 s^−1; kph(rel) (relative rate of photobleaching) ([4]; C6H6, with respect to standard I-SO in C6H6): 1.00; kph * 10^6 (absolute rate of photobleaching) ([4]; MeOH): 0.53 s^−1; kph(rel) (relative rate of photobleaching) ([4]; MeOH, with respect to standard I-TBA in MeOH): 1.56; kr(rel) (relative rate constants for product formation during reaction with singlet oxygen produced chemically) [5]: 5.24; Bleaching on irradiation of Methylene Blue [3]: 27%
